Patent publication US10653685B2, “Pharmaceutical compositions and methods for the treatment of hypoxia-related diseases” (priority 2015, dated 2020)

Legend:
rat primary heart cells [1] = assay: CK released by rat primary heart cells under hypoxia; format: cell-based; details: hypoxia 3 hours
Experimental: (§1) Sprague Dawley rat hearts (1-2 days old) were sterilely removed and bathed three times in Ca^++ and Mg^++—free PBS to remove excess blood cells. The hearts were minced to small fragments and then agitated in a proteolytic enzyme-RDB solution (Life Science research, Inst., Nes Ziona, Israel) prepared from a fig tree extract as described previously (Brik et al., Basic Res. Cardiol. 85:237-246, 1990), Shneyvays et al., J Mol Cell Cardiol. 33:1249-1261, 2001). The RDB-solution was then diluted 1:200 in PBS at 25° C. for a few cycles of 10 min each. The supernatant suspension containing dissociated cells, to which medium containing 10% horse serum was added, was centrifuged at 500 g for 5 min. After centrifugation, the supernatant phase was discarded, and cells were re-suspended in Dulbecco's modified Eagle medium supplemented with 10% heat-inactivated horse serum and 0.5% chick embryo extract. Cell suspensions were diluted to 1×10^6 cells/ml, and […] samples were placed in 24 well plates (4 plates) collagen/gelatin coated plastic culture dishes. […] The day after, Cells were washed to remove dead cells, and growth medium was replaced, as well as every 2 days and before experiment initiation, this time with glucose-free PBS. The experiments were then performed in vitro on these cardiomyocyte cultures after 5 days following the day of procedure beginning. Right before Hypoxia experiments, cultures wells were incubated in a humidified atmosphere incubator of 5% CO2 and 95% air at 37° C. for 30 minute steady state.
(§2) Approximately 3×10^5 cardiomyocytes/well from neonatal rat hearts were cultured with glucose-free PBS and exposed to hypoxia (oxygen and glucose deprivation) for 180 min. using a procedure essentially as described by O. Golan et al. (Biochemical pharmacology, 81 (2011), pp. 1219-1227)
(§3) In brief, Hypoxia was performed in a closed chamber by replacement of air with 100% Argon. During hypoxia Oxygen levels in the N2 atmosphere was below 1%. And after 180 min. of hypoxia, the pO2 in the PBS was <0.4 Torr. Hypoxic stress injury was determined based on the activity of lactate dehydrogenase (LDH) and creatine kinase (CK) released from the cells, at the end of 3 hr. hypoxic phase, and consequently after additional 2 hr. of reoxygenation.
For both LDH and CK measurements, 25 μL aliquots of each well incubated for 180 min under hypoxia, were transfer to clean 24 wells trays, which were placed within the automatic spectrophotometer and the product of the enzyme activity was measured through a wavelength of 340 nm at 30° C., under shaking. […]
Creatine Kinase (CK) activity was determined within the cardiac cell medium (PBS) using CK-NAC Reagent (Creatine kinase, activated by N-acetyl cysteine) from Thermo Fisher Scientific Inc. Middletown, Va. […]

rat primary heart cells [2] = assay: LDH released by rat primary heart cells under hypoxia; format: cell-based; details: hypoxia 3 hours
Experimental: as §1, §2, §3
For both LDH and CK measurements, 25 μL aliquots of each well incubated for 180 min under hypoxia, were transfer to clean 24 wells trays, which were placed within the automatic spectrophotometer and the product of the enzyme activity was measured through a wavelength of 340 nm at 30° C., under shaking. Results were expressed relatively to the control.
Lactate dehydrogenase (LDH) activity was determined within the cardiac cell medium (PBS) using LDH-L kit (Thermo Trace, Melbourne, Australia). […]

heart cells = details: maximum protection, WO 2013/003445; cited from earlier work

SMILES: c1ccc(CN(CCN(Cc2ccccn2)Cc2ccccn2)Cc2ccccn2)nc1 [TPEN, N,N,N′,N′-tetrakis-(2-pyridylmethyl)-ethylenediamine]
- CK Reduction (rat primary heart cells [1]; sodium alginate 0, TPEN 0.3 μM): 46.6%
- Mean (CK released from rat heart cells) (rat primary heart cells [1]; sodium alginate 0, TPEN 0.3 μM): 0.0411
- CK Reduction (rat primary heart cells [1]; sodium alginate 0, TPEN 1 μM): 14.3%
- Mean (CK released from rat heart cells) (rat primary heart cells [1]; sodium alginate 0, TPEN 1 μM): 0.0643
- LDH Reduction (rat primary heart cells [2]; sodium alginate 0, TPEN 0.3 μM): 39.5%
- Mean (LDH released from rat heart cells) (rat primary heart cells [2]; sodium alginate 0, TPEN 0.3 μM): 0.0409
- LDH Reduction (rat primary heart cells [2]; sodium alginate 0, TPEN 1 μM): 10.0%
- Mean (LDH released from rat heart cells) (rat primary heart cells [2]; sodium alginate 0, TPEN 1 μM): 0.0647
- protection from hypoxia stress injury (heart cells): ≤ 70%
